Measurements published in patent US6376670B1, “Quinoline-indole antimicrobial agents, uses and compositions related thereto” (Sepracor Inc., priority 1997, dated 2002).
Like-named read-outs stand apart in the source and are kept apart here.

Experiments:
[1] = tested on: methicillin-resistant Staphylococcus aureus (MRSA); test: Determination of MIC values (BHI broth, 96 well microtiter plate); format: cell-based; settings: Staphylococcus aureus, MRSA, 16 h, read-out: MIC MRSA
Description: (§1) Stock solutions of compounds are prepared with a concentration of 10 mg/mL. These solutions are then diluted 1:4 to give a concentration of 2.5 mg/mL. The compounds are then serially diluted 1:2 for 6 iterations. The concentrations made for each compound are 2.5, 1.25, 0.625, 0.3125, 0.156, 0.078, and 0.039 mg/mL. A control sample (no compound) is run along with each compound tested. All dilutions are made in DMSO.
(§2) All wells of a 96 well microtiter plate are filled with 100 μL of BHI (Brain-Heart Infusion) broth. Columns on the plate are labeled 1-12, and rows are labeled A-H. Each column of wells is used to test one series of diluted compounds. Into each well of 100 μL of BHI broth, 1 μL of diluted compound is placed for a 1:100 dilution. This makes the final concentration of each drug series 25, 12.5, 6.25, 3.125, 1.56, 0.78, 0.39, and 0 μg/mL.
(§3) Test Organism: A sterile 15 mL screw cap tube is filled wth 3 mL of BHI broth. Next, 2-3 colonies of test organism are inoculated into the tube. The tube is then incubated at 37° C. in a CO2 (approx. 7%) atmosphere jar. The organisms are allowed to grow to the density of a 0.5 McFarland standard (10^8 cells/mL). The organism is then inoculated into each well of the microtiter plate containing the diluted compounds to be tested for MIC. The inoculum is 1 μL in volume and represents 10^5 to 10^6 cells/mL.
(§4) After inoculation the plates are covered and incubated at 37° C. and approx. 7-10% CO2 atmosphere overnight (about 16 hours). The plates are then observed for growth, the well with the lowest concentration of drug and no observable growth represents the well determining the MIC.

[2] = tested on: vancomycin-resistant Enterococcus spp. (VRE); test: as above; format: cell-based; settings: Enterococcus, VRE, 16 h, read-out: MIC VREF
Description: as §1, §2, §3, §4

[3] = BHI broth, 37° C., overnight (about 16 hours)

Row | SMILES | MIC [1, 3] [µg/mL] | MIC [2, 3] [µg/mL] | MIC [1] [µg/mL] | MIC [2] [µg/mL] | MIC ([1]; BHI broth, 37° C., about 16 hours) [µg/mL]
1 | Cn1cc(-c2cc(C(=O)NCc3ccc(CN)cc3)c3ccccc3n2)c2ccccc21 [Example 12] | > 25 | > 25 |  |  | 
2 | NCc1ccc(CNC(=O)c2cc3ccccc3c(-c3c[nH]c4ccc(Br)cc34)n2)cc1 [Example 13] | < 7 | < 25 |  |  | 
3 | O=C(c1cc(-c2c[nH]c3ccc(Br)cc23)nc2ccccc12)N1CCCNCC1 [Example 14] | < 25 | < 25 |  |  | 
4 | NCc1ccc(CNC(=O)c2cc(-c3c[nH]c4ccc(F)cc34)nc3ccccc23)cc1 [Example 15] | < 25 | > 25 |  |  | 
5 | NCc1ccc(CNC(=O)c2cc(-c3c[nH]c4ccc(Cl)cc34)nc3ccccc23)cc1 [Example 16] | < 7 | < 25 |  |  | 
6 | Cc1ccc2[nH]cc(-c3cc(C(=O)NCc4ccc(CN)cc4)c4ccccc4n3)c2c1 [Example 17] | < 25 | > 25 |  |  | 
7 | COc1ccc2[nH]cc(-c3cc(C(=O)NCc4ccc(CN)cc4)c4ccccc4n3)c2c1 [Example 18] | > 25 | > 25 |  |  | 
8 | NCc1ccc(CNC(=O)c2cc(-c3c[nH]c4ccc(OCc5ccccc5)cc34)nc3ccccc23)cc1 [Example 19] | < 25 | < 25 |  |  | 
9 | NCc1ccc(CNC(=O)c2cc(-c3c[nH]c4cc(Cl)ccc34)nc3ccccc23)cc1 [Example 20] | < 25 | < 25 |  |  | 
10 | NCc1ccc(CNC(=O)c2cc(-c3c[nH]c4cccc(Cl)c34)nc3ccccc23)cc1 [Example 21] | > 25 | > 25 |  |  | 
11 | NCc1ccc(CNC(=O)c2cc(-c3c(-c4ccccc4)[nH]c4ccccc34)nc3ccccc23)cc1 [Example 22] | > 25 | > 25 |  |  | 
12 | Cc1[nH]c2ccccc2c1-c1cc(C(=O)NCc2ccc(CN)cc2)c2ccccc2n1 [Example 23] | > 25 | > 25 |  |  | 
13 | COC(=O)c1cc(-c2c[nH]c3ccc(Br)cc23)nc2ccccc12 [Example 24] | > 25 | > 25 |  |  | 
14 | O=C(c1cc(C23CC4CC(CC(C4)C2)C3)nc2ccccc12)N1CCNCC1 [Example 25] | > 25 | > 25 |  |  | 
15 | NCc1ccc(CNC(=O)c2cc(C34CC5CC(CC(C5)C3)C4)nc3ccccc23)cc1 [Example 26] | < 25 | < 25 |  |  | 
16 | O=C(O)c1cc(-c2c[nH]c3ccc(Br)cc23)nc2ccccc12 [Example 27] | > 25 | > 25 |  |  | 
17 | Brc1ccc2[nH]cc(-c3cc(CN4CCNCC4)c4ccccc4n3)c2c1 [Example 28] | < 25 | < 25 |  |  | 
18 | COC(=O)C(=O)N1CCN(C(=O)c2cc(-c3c[nH]c4ccc(Br)cc34)nc3ccccc23)CC1 [Example 29] | < 25 | < 25 |  |  | 
19 | CN1CCN(C(=O)c2cc(-c3c[nH]c4ccc(Br)cc34)nc3ccccc23)CC1 [Example 30] | < 25 | > 25 |  |  | 
20 | CNC1CCN(C(=O)c2cc(-c3c[nH]c4ccc(Br)cc34)nc3ccccc23)CC1 [Example 31] | < 25 | < 25 |  |  | 
21 | O=C(c1cc(-c2c[nH]c3ccc(Br)cc23)nc2ccccc12)N1CCN(c2ccc(F)cc2)CC1 [Example 32] | < 25 | < 25 |  |  | 
22 | CNCCC(C)N(C)C(=O)c1cc(-c2c[nH]c3ccc(Br)cc23)nc2ccccc12 (stereo not shown) [Example 33] | < 7 | < 7 |  |  | 
23 | O=C(NC1CCOC1=O)c1cc(-c2c[nH]c3ccc(Br)cc23)nc2ccccc12 (stereo not shown) [Example 34] | < 25 | < 25 |  |  | 
24 | O=C(NC1CN2CCC1CC2)c1cc(-c2c[nH]c3ccc(Br)cc23)nc2ccccc12 (stereo not shown) [Example 35] |  |  | < 25 | > 25 | 
25 | O=C(c1cc(-c2c[nH]c3ccc(Br)cc23)nc2ccccc12)N1CCC(O)(c2ccccc2)CC1 [Example 36] | < 25 | < 25 |  |  | 
26 | O=C(Nc1ccc(O)cc1)c1cc(-c2c[nH]c3ccc(Br)cc23)nc2ccccc12 [Example 37] | < 7 | > 25 |  |  | 
27 | O=C(NCc1nc2ccccc2[nH]1)c1cc(-c2c[nH]c3ccc(Br)cc23)nc2ccccc12 [Example 38] | < 7 | > 25 |  |  | 
28 | NCc1ccc(CNCc2cc(-c3c[nH]c4ccc(Br)cc34)nc3ccccc23)cc1 [Example 39] | < 7 | < 7 |  |  | 

Row | SMILES | MIC [1, 3] [µg/mL] | MIC [2, 3] [µg/mL] | MIC [1] [µg/mL] | MIC [2] [µg/mL] | MIC ([1]; BHI broth, 37° C., about 16 hours) [µg/mL]
29 | O=C(NCc1ccc(CNC(=O)c2cc(-c3c[nH]c4ccc(Br)cc34)nc3ccccc23)cc1)Nc1ccccc1 [Example 40] | > 25 | > 25 |  |  | 
30 | NCCCCCNC(=O)c1cc(-c2c[nH]c3ccc(Br)cc23)nc2ccccc12 [Example 41] | < 25 | < 25 |  |  | 
31 | NCC1CCC(CNC(=O)c2cc(-c3c[nH]c4ccc(Br)cc34)nc3ccccc23)CC1 (stereo not shown) [Example 42] | > 25 | < 25 |  |  | 
32 | NC1CCN(C(=O)c2cc(-c3c[nH]c4ccc(Br)cc34)nc3ccccc23)C1 (stereo not shown) [Example 43] | < 25 | < 25 |  |  | 
33 | O=C(NCCN1CCCC1)c1cc(-c2c[nH]c3ccc(Br)cc23)nc2ccccc12 [Example 44] | < 25 | < 25 |  |  | 
34 | O=C(c1cc(-c2c[nH]c3ccc(Br)cc23)nc2ccccc12)N1CCN(Cc2ccccc2)CC1 [Example 45] | > 25 | > 25 |  |  | 
35 | NC(=O)C1CCCN(C(=O)c2cc(-c3c[nH]c4ccc(Br)cc34)nc3ccccc23)C1 (stereo not shown) [Example 46] | < 25 | < 25 |  |  | 
36 | O=C(c1cc(-c2c[nH]c3ccc(Br)cc23)nc2ccccc12)N1CCC(N2CCCCC2)CC1 [Example 47] | < 25 | < 25 |  |  | 
37 | O=C(NCCCCC1CCCNC1)c1cc(-c2c[nH]c3ccc(Br)cc23)nc2ccccc12 (stereo not shown) [Example 49] | < 7 | < 7 |  |  | 
38 | CNCc1ccc(CNCc2cc(-c3c[nH]c4ccc(Br)cc34)nc3ccccc23)cc1 [Example 50] | < 7 | < 25 |  |  | 
39 | NCCN(CCNC(=O)c1cccc2nc(-c3c[nH]c4ccc(Br)cc34)ccc12)CCNC(=O)c1cc(-c2c[nH]c3ccc(Br)cc23)nc2ccccc12 [Example 51] | < 7 | < 7 |  |  | 
40 | NCc1ccc(CNC(=O)c2cc(-c3csc4ccccc34)nc3ccccc23)cc1 [Example 52] | < 25 | < 25 |  |  | 
41 | O=C(c1cc(-c2c[nH]c3ccc(Br)cc23)nc2ccc(I)cc12)N1CCNCC1 [Example 54] | < 7 | < 7 |  |  | 
42 | NCc1ccc(CNC(=O)c2cc(-c3c[nH]c4ccc(Br)cc34)nc3ccc(OC(F)(F)F)cc23)cc1 [Example 55] | < 7 | < 7 |  |  | 
43 | Cc1cc(Cl)cc2c(C(=O)NCc3ccc(CN)cc3)cc(-c3c[nH]c4ccc(Br)cc34)nc12 [Example 56] | < 25 | < 25 |  |  | 
44 | N=C(N)NCCCC(NC(=O)c1cc(-c2c[nH]c3ccc(Br)cc23)nc2ccccc12)C(N)=O (stereo not shown) [Example 57] | < 25 | < 25 |  |  | 
45 | NCCCCCCNC(=O)c1cc(-c2c[nH]c3ccc(Br)cc23)nc2ccccc12 [Example 59] | < 7 | < 7 |  |  | 
46 | CNC1CCN(C(=O)c2cc(-c3c[nH]c4ccc(Br)cc34)nc3ccccc23)C1 (stereo not shown) [Example 60] | < 25 | < 25 |  |  | 
47 | O=C(CCC(=O)N1CCN(C(=O)c2cc(-c3c[nH]c4ccc(Br)cc34)nc3ccccc23)CC1)N1CCN(C(=O)c2cc(-c3c[nH]c4ccc(Br)cc34)nc3ccccc23)CC1 [Example 62] | > 25 | > 25 |  |  | 
48 | COc1ccc(NC(=O)N2CCN(C(=O)c3cc(-c4c[nH]c5ccc(Br)cc45)nc4ccccc34)CC2)c(OC)c1 [Example 63] | > 25 | > 25 |  |  | 
49 | O=C(Nc1ccccc1C(F)(F)F)N1CCN(C(=O)c2cc(-c3c[nH]c4ccc(Br)cc34)nc3ccccc23)CC1 [Example 64] | > 25 | > 25 |  |  | 
50 | O=C(Nc1ccc(C(F)(F)F)cc1)N1CCN(C(=O)c2cc(-c3c[nH]c4ccc(Br)cc34)nc3ccccc23)CC1 [Example 65] | < 25 | < 7 |  |  | 
51 | O=C(Nc1ccc(Cl)cc1C(F)(F)F)N1CCN(C(=O)c2cc(-c3c[nH]c4ccc(Br)cc34)nc3ccccc23)CC1 [Example 66] | > 25 | > 25 |  |  | 
52 | O=C(Nc1ccc(Cl)c(C(F)(F)F)c1)N1CCN(C(=O)c2cc(-c3c[nH]c4ccc(Br)cc34)nc3ccccc23)CC1 [Example 67] | < 7 | < 7 |  |  | 
53 | O=C(Nc1ccc(OC(F)(F)F)cc1)N1CCN(C(=O)c2cc(-c3c[nH]c4ccc(Br)cc34)nc3ccccc23)CC1 [Example 68] | < 7 | < 7 |  |  | 
54 | O=C(Nc1ccccc1OC(F)(F)F)N1CCN(C(=O)c2cc(-c3c[nH]c4ccc(Br)cc34)nc3ccccc23)CC1 [Example 69] | > 25 | > 25 |  |  | 
55 | NCCNC(=O)c1cc(-c2c[nH]c3ccc(Br)cc23)nc2cc(Cl)c(C#CCN3CCCCC3)cc12 [Example 488] |  |  |  |  | < 7
